Assay results from patent publication US12358915B2, “METTL3 inhibitory compounds” (STORM THERAPEUTICS LTD., priority 2019, dated 2025).
pIC50: −log10 of the molar value. Like-named read-outs stand apart in the source and are kept apart here.

How the values were obtained:
[1] = tested on: MOLM-13 cells; test: MOLM13 CTG - analysis of cell proliferation (Cell Titre Glo); type: cell-based; conditions: Homo sapiens, geometric mean, read-out: CTG MOLM13 cells IC50 GEOMEAN
[2] = molecular target: T1, METTL3/14 (Homo sapiens, UniProt Q86U44); test: METTL3/14 methyltransferase assay (METTL3_14 RFMS, RapidFire mass spectrometry); type: biochemical; conditions: read-out: METTL3_14 RFMS IC50;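 note: recombinant His-tagged METTL3 with FLAG-tagged METTL14 from baculovirus, SAH product quantified by mass spectrometry against isotope-labelled internal standards, 60 min at room temperature, scaled between no-RNA and DMSO-only wells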
T1 construct: The enzyme used was full-length his-tagged METTL3; His; made in house

[3] = 5 nM METTL3/14, 0.2 μM RNA substrate, 0.5 μM SAM, lower limit of the assay IC50=5 nM, Compounds 266-351
[4] = 5 nM METTL3/14, 0.2 μM RNA substrate, 0.5 μM SAM, lower limit of the assay IC50=5 nM, Compounds 63-265

T1 sequence (Q86U44 whole entry): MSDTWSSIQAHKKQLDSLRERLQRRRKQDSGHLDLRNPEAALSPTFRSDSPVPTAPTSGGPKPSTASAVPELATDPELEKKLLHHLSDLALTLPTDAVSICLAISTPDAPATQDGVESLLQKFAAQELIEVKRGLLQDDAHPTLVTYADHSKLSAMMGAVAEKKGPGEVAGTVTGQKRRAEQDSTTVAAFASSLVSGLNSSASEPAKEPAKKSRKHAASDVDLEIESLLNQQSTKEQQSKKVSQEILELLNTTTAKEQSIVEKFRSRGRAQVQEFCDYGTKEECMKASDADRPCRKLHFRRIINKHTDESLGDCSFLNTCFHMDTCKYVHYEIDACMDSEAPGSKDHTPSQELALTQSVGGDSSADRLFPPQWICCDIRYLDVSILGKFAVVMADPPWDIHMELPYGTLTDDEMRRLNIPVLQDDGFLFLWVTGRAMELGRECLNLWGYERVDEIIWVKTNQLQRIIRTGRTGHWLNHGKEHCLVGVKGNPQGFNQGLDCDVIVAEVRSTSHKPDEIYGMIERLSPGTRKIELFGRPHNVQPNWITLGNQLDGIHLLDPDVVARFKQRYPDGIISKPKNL
T1 sequence (Q9HCE5 whole entry partner): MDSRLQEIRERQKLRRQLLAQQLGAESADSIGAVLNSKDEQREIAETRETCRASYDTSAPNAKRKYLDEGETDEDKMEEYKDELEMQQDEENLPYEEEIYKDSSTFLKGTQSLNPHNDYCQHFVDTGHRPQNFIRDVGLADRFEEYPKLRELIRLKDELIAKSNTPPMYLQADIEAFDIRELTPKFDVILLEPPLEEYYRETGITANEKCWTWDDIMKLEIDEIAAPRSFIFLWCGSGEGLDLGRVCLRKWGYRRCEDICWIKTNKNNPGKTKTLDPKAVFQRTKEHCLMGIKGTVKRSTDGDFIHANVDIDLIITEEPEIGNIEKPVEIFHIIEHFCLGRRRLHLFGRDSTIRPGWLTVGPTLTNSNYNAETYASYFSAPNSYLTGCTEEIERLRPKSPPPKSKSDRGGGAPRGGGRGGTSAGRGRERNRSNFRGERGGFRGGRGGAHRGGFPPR

| Compound | pIC50 [1] | pIC50 [2, 3] | pIC50 [2, 4] | pIC50 [2] |
| --- | --- | --- | --- | --- |
| CC(C)(C)CNCc1ccc2nc(Cn3cc(-c4cc(Br)cc5[nH]ncc45)nn3)cn2c1 [Example 225, [(2-{[4-(6-bromo-1H-indazol-4-yl)-1H-1,2,3-triazol-1-yl]methyl}imidazo[1,2-a]pyridin-6-yl)methyl](2,2-dimethylpropyl)amine] | 6.19 |  | 8.17 |  |
| CC(C)(C)CNCc1ccc2nc(Cn3cc(-c4cccc5[nH]ncc45)nn3)cn2c1 [Example 250, (2,2-dimethylpropyl)[(2-{[4-(1H-indazol-4-yl)-1H-1,2,3-triazol-1-yl]methyl}imidazo[1,2-a]pyridin-6-yl)methyl]amine] | 5.52 |  | 7.95 |  |
| CC1(C)CCN(Cc2ccc3nc(Cn4cc(-c5cccc6[nH]ncc56)nn4)cn3c2)CC1 [Example 251, 4-[1-({6-[(4,4-dimethylpiperidin-1-yl)methyl]imidazo[1,2-a]pyridin-2-yl}methyl)-1H-1,2,3-triazol-4-yl]-1H-indazole] | 6.14 |  | 8.24 |  |
| OCc1ccc2nc(Cn3cc(-c4cc(Br)cc5[nH]ncc45)nn3)cn2c1 [Example 253, (2-{[4-(6-bromo-1H-indazol-4-yl)-1H-1,2,3-triazol-1-yl]methyl}imidazo[1,2-a]pyridin-6-yl)methanol] | 5.55 |  | 6.68 |  |
| CC(C)(C)CNCc1ccc2nc(Cn3cc(-c4ccc5[nH]ncc5c4)nn3)cn2c1 [Example 254, (2,2-dimethylpropyl)[(2-{[4-(1H-indazol-5-yl)-1H-1,2,3-triazol-1-yl]methyl}imidazo[1,2-a]pyridin-6-yl)methyl]amine] | ≤ 4.52 |  |  | 5.00 |
| CC(NCC1CCCCC1)c1ccc2nc(Cn3cc(-c4cccc5[nH]ncc45)nn3)cn2c1 (centres unmarked) [Example 255] | 5.02 |  | 7.59 |  |
| Oc1cc(-c2cn(Cc3cn4cc(CNCC5(O)CCC5)ccc4n3)nn2)c2cn[nH]c2c1 [Example 267, 4-[1-[[6-[[(1-hydroxycyclobutyl)methylamino]methyl]imidazo[1,2-a]pyridin-2-yl]methyl]triazol-4-yl]-1H-indazol-6-ol] | ≤ 4.52 | 8.16 |  |  |
| COc1ccc2[nH]ncc2c1-c1cn(Cc2cn3cc(CNCC4(O)CCC4)ccc3n2)nn1 [Example 268, 1-[[[2-[[4-(5-methoxy-1H-indazol-4-yl)triazol-1-yl]methyl]imidazo[1,2-a]pyridin-6-yl]methylamino]methyl]cyclobutanol] | 5.27 | 7.97 |  |  |
| OC1(CNCc2ccc3nc(Cn4cc(-c5cc(Br)cc6[nH]ncc56)nn4)cn3c2)CCCCC1 [Example 294, 1-[[[2-[[4-(6-bromo-1H-indazol-4-yl)triazol-1-yl]methyl]imidazo[1,2-a]pyridin-6-yl]methylamino]methyl]cyclohexanol] | 6.00 | 8.24 |  |  |

The next lines start with the values.

| pIC50 [1] | pIC50 [2, 3] | pIC50 [2, 4] | pIC50 [2] | Compound |
| --- | --- | --- | --- | --- |
| 4.91 | 7.71 |  |  | O=C(NCc1cn2cc(CNCCC3CCC3)ccc2n1)c1cc(=O)n2ccccc2n1 [Compound 286, N-[[6-[(2-cyclobutylethylamino)methyl]imidazo[1,2-a]pyridin-2-yl]methyl]-4-oxo-pyrido[1,2-a]pyrimidine-2-carboxamide] |
| ≤ 4.52 | 7.16 |  |  | CC(C)(O)CNCc1ccc2nc(CNC(=O)c3cc(=O)n4ccccc4n3)cn2c1 [Compound 287, N-[[6-[[(2-hydroxy-2-methyl-propyl)amino]methyl]imidazo[1,2-a]pyridin-2-yl]methyl]-4-oxo-pyrido[1,2-a]pyrimidine-2-carboxamide] |
| 5.14 | 7.86 |  |  | O=C(NCc1cn2cc(CNCC3(O)CCC3)ccc2n1)c1cc(=O)n2ccccc2n1 [Compound 288, N-[[6-[[(1-hydroxycyclobutyl)methylamino]methyl]imidazo[1,2-a]pyridin-2-yl]methyl]-4-oxo-pyrido[1,2-a]pyrimidine-2-carboxamide] |
| 5.16 | 7.75 |  |  | CC1CC(CNCc2ccc3nc(CNC(=O)c4cc(=O)n5ccccc5n4)cn3c2)C1 (centres unmarked) [Compound 290, N-[[6-[[(3-methylcyclobutyl)methylamino]methyl]imidazo[1,2-a]pyridin-2-yl]methyl]-4-oxo-pyrido[1,2-a]pyrimidine-2-carboxamide] |
| 5.14 | 7.70 |  |  | CCC(C)(C)CNCc1ccc2nc(CNC(=O)c3cc(=O)n4ccccc4n3)cn2c1 [Compound 292, N-[[6-[(2,2-dimethylbutylamino)methyl]imidazo[1,2-a]pyridin-2-yl]methyl]-4-oxo-pyrido[1,2-a]pyrimidine-2-carboxamide] |
| 5.33 | 7.89 |  |  | CC[C@H](C)CNCc1ccc2nc(CNC(=O)c3cc(=O)n4ccccc4n3)cn2c1 [Compound 293, N-[[6-[[[(2S)-2-methylbutyl]amino]methyl]imidazo[1,2-a]pyridin-2-yl]methyl]-4-oxo-pyrido[1,2-a]pyrimidine-2-carboxamide] |
| 5.83 |  | 8.09 |  | Brc1cc(-c2cn(Cc3cn4cc(CNCC5CCCCC5)ccc4n3)nn2)c2cn[nH]c2c1 [Example 226, [(2-{[4-(6-bromo-1H-indazol-4-yl)-1H-1,2,3-triazol-1-yl]methyl}imidazo[1,2-a]pyridin-6-yl)methyl](cyclohexylmethyl)amine] |
| 6.15 |  | 8.10 |  | FC1(F)CC(CNCc2ccc3nc(Cn4cc(-c5cc(Br)cc6[nH]ncc56)nn4)cn3c2)C1 [Example 252, [(2-{[4-(6-bromo-1H-indazol-4-yl)-1H-1,2,3-triazol-1-yl]methyl}imidazo[1,2-a]pyridin-6-yl)methyl][(3,3-difluorocyclobutyl)methyl]amine] |
| 4.86 |  | 5.56 |  | O=C(NCc1cn2cc(C3COCCN3)ccc2n1)c1cc(=O)n2ccccc2n1 (centres unmarked) [Example 263, N-{[6-(morpholin-3-yl)imidazo[1,2-a]pyridin-2-yl]methyl}-4-oxo-4H-pyrido[1,2-a]pyrimidine-2-carboxamide] |
| 4.95 |  |  | ≥ 8.37 | Oc1cc(-c2cn(Cc3cn4cc(CNCC5CCC5)ccc4n3)nn2)c2cn[nH]c2c1 [Example 266, 4-[1-[[6-[(cyclobutylmethylamino)methyl]imidazo[1,2-a]pyridin-2-yl]methyl]triazol-4-yl]-1H-indazol-6-ol] |
| 6.44 |  |  | ≥ 8.35 | Brc1cc(-c2cn(Cc3cn4cc(CNCC5CCC5)ccc4n3)nn2)c2cn[nH]c2c1 [Example 296, 1-[2-[[4-(6-bromo-1H-indazol-4-yl)triazol-1-yl]methyl]imidazo[1,2-a]pyridin-6-yl]-N-(cyclobutylmethyl)methanamine] |
| ≤ 4.52 | 6.13 |  |  | O=C(O)c1cc(-c2cn(Cc3cn4cc(CNCC5CCC5)ccc4n3)nn2)c2cn[nH]c2c1 [Example 297, 4-[1-[[6-[(cyclobutylmethylamino)methyl]imidazo[1,2-a]pyridin-2-yl]methyl]triazol-4-yl]-1H-indazole-6-carboxylic acid] |
| ≤ 4.52 | 7.38 |  |  | NC(=O)c1cc(-c2cn(Cc3cn4cc(CNCC5CCC5)ccc4n3)nn2)c2cn[nH]c2c1 [Example 298, 4-[1-[[6-[(cyclobutylmethylamino)methyl]imidazo[1,2-a]pyridin-2-yl]methyl]triazol-4-yl]-1H-indazole-6-carboxamide] |
